Test results: ChEMBL document CHEMBL4613266, “Discovery and Structure Relationships of Salicylanilide Derivatives as Potent, Non-acidic P2X1 Receptor Antagonists” (J Med Chem, 2020)
Activity calls are given as the source filed them. The calls are words filed in the database; no cut-off is given here.

How the values were obtained:
Format in all cases: cell-based
P2X purinoceptor 7 = biological target: T1, P2X purinoceptor 7 (Homo sapiens, UniProt Q99572); experiment: Antagonist activity at human P2X7 receptor expressed in human 1321N1 cells assessed as inhibition of ATP-induced cytosolic calcium influx preincubated for 30 mins followed by ATP addition by Fluo-4 AM dye-based fluorescence assay
T1 sequence (Q99572 whole entry): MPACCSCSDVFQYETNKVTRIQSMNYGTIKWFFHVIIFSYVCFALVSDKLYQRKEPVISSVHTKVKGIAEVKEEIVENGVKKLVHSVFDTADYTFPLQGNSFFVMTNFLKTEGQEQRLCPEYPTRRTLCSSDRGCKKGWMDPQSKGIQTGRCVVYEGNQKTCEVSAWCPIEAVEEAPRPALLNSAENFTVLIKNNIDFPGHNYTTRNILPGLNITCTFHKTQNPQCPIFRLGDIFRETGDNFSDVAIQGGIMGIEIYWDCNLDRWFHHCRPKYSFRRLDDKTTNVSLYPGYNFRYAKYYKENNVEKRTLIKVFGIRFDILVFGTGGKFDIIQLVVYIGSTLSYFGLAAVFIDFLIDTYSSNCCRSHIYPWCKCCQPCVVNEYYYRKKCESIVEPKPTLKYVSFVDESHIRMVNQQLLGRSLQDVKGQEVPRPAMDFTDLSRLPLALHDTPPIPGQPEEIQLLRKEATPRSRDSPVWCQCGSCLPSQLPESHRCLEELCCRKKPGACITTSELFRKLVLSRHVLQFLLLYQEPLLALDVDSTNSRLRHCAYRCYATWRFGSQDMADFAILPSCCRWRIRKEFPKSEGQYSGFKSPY

P2X purinoceptor 1 = P2X purinoceptor 1 (Homo sapiens, UniProt P51575); experiment: (§1) Antagonist activity at non-desensitizing human P2X1 receptor ( P2X2/P2X1 chimera) expressed in human 1321N1 cells assessed as inhibition of ATP-induced calcium influx pre-incubated for 30 mins before ATP stimulation by FLIPR assay relative to control
[1] = biological target: T2, P2X purinoceptor 3 (Homo sapiens) (UniProt P56373); experiment: Antagonist activity at human P2X3 receptor expressed in human 1321N1 cells assessed as inhibition of ATP-induced cytosolic calcium influx at 10 uM preincubated for 30 mins followed by ATP addition by Fluo-4 AM dye-based fluorescence assay relative to control
T2 sequence (whole entry): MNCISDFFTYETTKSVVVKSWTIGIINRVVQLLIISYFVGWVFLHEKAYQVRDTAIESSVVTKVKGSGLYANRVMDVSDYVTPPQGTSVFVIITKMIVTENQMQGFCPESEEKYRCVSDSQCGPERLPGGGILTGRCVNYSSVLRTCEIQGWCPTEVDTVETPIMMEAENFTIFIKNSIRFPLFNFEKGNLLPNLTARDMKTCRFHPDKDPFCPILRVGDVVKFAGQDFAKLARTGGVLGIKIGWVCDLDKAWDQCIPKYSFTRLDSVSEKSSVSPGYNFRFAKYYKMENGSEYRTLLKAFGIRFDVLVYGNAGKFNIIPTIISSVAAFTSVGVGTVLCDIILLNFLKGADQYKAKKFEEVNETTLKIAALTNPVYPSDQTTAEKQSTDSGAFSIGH

P2X purinoceptor 3 = biological target: T3, P2X purinoceptor 3 (Homo sapiens, UniProt P56373); experiment: Antagonist activity at human P2X3 receptor expressed in human 1321N1 cells assessed as inhibition of ATP-induced cytosolic calcium influx preincubated for 30 mins followed by ATP addition by Fluo-4 AM dye-based fluorescence assay
T3 sequence (P56373 whole entry): T2 sequence (whole entry)

P2X purinoceptor 4 = biological target: T4, P2X purinoceptor 4 (Homo sapiens, UniProt Q99571); experiment: Antagonist activity at human P2X4 receptor expressed in human 1321N1 cells assessed as inhibition of ATP-induced cytosolic calcium influx preincubated for 30 mins followed by ATP addition by Fluo-4 AM dye-based fluorescence assay
T4 sequence (Q99571 whole entry): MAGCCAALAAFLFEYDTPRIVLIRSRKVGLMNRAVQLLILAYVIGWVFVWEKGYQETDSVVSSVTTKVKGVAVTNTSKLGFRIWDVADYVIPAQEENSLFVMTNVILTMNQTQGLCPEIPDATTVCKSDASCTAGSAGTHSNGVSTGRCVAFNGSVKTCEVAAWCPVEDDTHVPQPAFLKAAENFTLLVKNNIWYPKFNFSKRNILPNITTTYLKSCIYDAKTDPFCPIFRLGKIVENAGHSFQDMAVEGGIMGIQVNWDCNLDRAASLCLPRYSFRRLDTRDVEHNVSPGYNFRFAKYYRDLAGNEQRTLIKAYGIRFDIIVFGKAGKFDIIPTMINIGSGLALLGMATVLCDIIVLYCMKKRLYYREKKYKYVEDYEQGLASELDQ

[2] = biological target: T5, P2X purinoceptor 1 (Homo sapiens) (UniProt P51575); experiment: as §1, with “Negative allosteric modulator” for “Antagonist”, “of maximal response for” for “of”, “influx at 100 to 500 nM” for “influx”
T5 sequence (whole entry): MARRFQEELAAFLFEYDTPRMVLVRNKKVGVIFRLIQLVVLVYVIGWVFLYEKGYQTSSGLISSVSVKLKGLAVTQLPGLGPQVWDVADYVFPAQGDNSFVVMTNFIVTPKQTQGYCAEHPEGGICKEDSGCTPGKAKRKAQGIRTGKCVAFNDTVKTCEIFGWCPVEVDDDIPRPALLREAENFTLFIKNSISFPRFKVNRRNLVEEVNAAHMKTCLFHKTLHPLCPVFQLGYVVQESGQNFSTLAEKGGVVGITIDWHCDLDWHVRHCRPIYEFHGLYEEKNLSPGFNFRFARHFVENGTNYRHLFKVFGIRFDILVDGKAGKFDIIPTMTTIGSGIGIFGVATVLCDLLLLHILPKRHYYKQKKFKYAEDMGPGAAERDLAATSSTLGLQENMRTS

P2X purinoceptor 2 = biological target: T6, P2X purinoceptor 2 (Homo sapiens, UniProt Q9UBL9); experiment: Antagonist activity at human P2X2 receptor expressed in human 1321N1 cells assessed as inhibition of ATP-induced cytosolic calcium influx preincubated for 30 mins followed by ATP addition by Fluo-4 AM dye-based fluorescence assay
T6 sequence (Q9UBL9 whole entry): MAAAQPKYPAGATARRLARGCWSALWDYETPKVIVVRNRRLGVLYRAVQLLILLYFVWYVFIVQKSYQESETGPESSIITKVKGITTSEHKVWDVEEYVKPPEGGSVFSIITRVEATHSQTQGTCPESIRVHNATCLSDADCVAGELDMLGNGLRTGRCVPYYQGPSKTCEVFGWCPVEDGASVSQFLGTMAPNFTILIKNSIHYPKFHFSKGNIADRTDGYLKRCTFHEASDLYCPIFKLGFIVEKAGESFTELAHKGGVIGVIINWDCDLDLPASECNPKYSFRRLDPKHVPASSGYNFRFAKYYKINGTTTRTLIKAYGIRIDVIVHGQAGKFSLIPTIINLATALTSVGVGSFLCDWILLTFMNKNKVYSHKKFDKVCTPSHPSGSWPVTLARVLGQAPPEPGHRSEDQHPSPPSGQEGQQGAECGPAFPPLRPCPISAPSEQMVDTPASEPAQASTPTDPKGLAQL

[3] = biological target: T7, P2X purinoceptor 4 (Homo sapiens) (UniProt Q99571); experiment: Antagonist activity at human P2X4 receptor expressed in human 1321N1 cells assessed as inhibition of ATP-induced cytosolic calcium influx at 10 uM preincubated for 30 mins followed by ATP addition by Fluo-4 AM dye-based fluorescence assay relative to control
T7 sequence (whole entry): T4 sequence (Q99571 whole entry)

[4] = biological target: T5, P2X purinoceptor 1 (Homo sapiens); experiment: Antagonist activity at non-desensitizing human P2X1 receptor ( P2X2/P2X1 chimera) expressed in human 1321N1 cells assessed as inhibition of ATP-induced calcium influx at 10 uM pre-incubated for 30 mins before ATP stimulation by FLIPR assay relative to control
[5] = biological target: T5, P2X purinoceptor 1 (Homo sapiens); experiment: Antagonist activity P2X1 receptor in human platelets assessed as inhibition of ADP-induced platelet aggregation pre-incubated for 30 mins before ADP stimulation by aggregometry relative to control
[6] = biological target: T5, P2X purinoceptor 1 (Homo sapiens); experiment: Antagonist activity P2X1 receptor in Apyrase pre-treated human platelets assessed as inhibition of collagen-induced platelet aggregation pre-incubated for 30 mins before collagen stimulation by aggregometry relative to control
[7] = biological target: T5, P2X purinoceptor 1 (Homo sapiens); experiment: Antagonist activity P2X1 receptor in Apyrase pre-treated human platelets assessed as inhibition of TRAP6-induced platelet aggregation pre-incubated for 30 mins before TRAP6 stimulation by aggregometry relative to control
[8] = biological target: T8, P2X purinoceptor 2 (Homo sapiens) (UniProt Q9UBL9); experiment: Antagonist activity at human P2X2 receptor expressed in human 1321N1 cells assessed as inhibition of ATP-induced cytosolic calcium influx at 10 uM preincubated for 30 mins followed by ATP addition by Fluo-4 AM dye-based fluorescence assay relative to control
T8 sequence (whole entry): T6 sequence (Q9UBL9 whole entry)

[9] = biological target: T5, P2X purinoceptor 1 (Homo sapiens); experiment: as §1
[10] = biological target: T5, P2X purinoceptor 1 (Homo sapiens); experiment: Antagonist activity at non-desensitizing human P2X1 receptor ( P2X2/P2X1 chimera) expressed in human 1321N1 cells assessed as inhibition of ATP-induced calcium influx at 1 uM pre-incubated for 30 mins before ATP stimulation by FLIPR assay relative to control

Compound	IC50 (P2X purinoceptor 7) [nM]	IC50 (P2X purinoceptor 1) [nM]	inhibition [1] [%]	IC50 (P2X purinoceptor 3) [nM]	IC50 (P2X purinoceptor 4) [nM]	inhibition [2]	IC50 (P2X purinoceptor 2) [nM]	inhibition [3] [%]	inhibition [4] [%]	inhibition [5] [%]	inhibition [6] [%]	inhibition [7] [%]	inhibition [8] [%]	inhibition [9]	inhibition [10] [%]
O=C(Nc1cc(C(F)(F)F)cc(C(F)(F)F)c1)c1cccc(F)c1O	857	70.6	38	> 10000	≥ 10000	Active	> 10000	49	80						
O=C(Nc1cc(F)cc(F)c1)c1cc(Cl)ccc1O	160	50.5	2	> 10000	155		> 10000		62	14	47	5	4		
O=C(Nc1cc(C(F)(F)F)cc(C(F)(F)F)c1)c1cc(Cl)ccc1O [IMD-0354]	175	19.2	11	> 10000	156	Active	> 10000		> 75				-7	Dose-dependent effect	> 40
